# Assay results taken from US20130210817A1, “METHODS OF CONTROLLING NEONICOTINOID RESISTANT APHIDS” (SYNGENTA CROP PROTECTION LLC, priority 2010, published 2013).
# Assays:
# [1] = test system: neonicotinoid insecticide resistant aphid strain; assay type: in vivo; conditions: mixed age aphids on chinese cabbage leaf discs, Potter Tower spray, mortality 72 hours after treatment; resistant strain from peach orchard, Avignon region, 2009
# Experimental: (§1) The following bioassay methodology was utilized to generate the data included in the table:
# (§2) 5 cm leaf discs were taken from fully expanded chinese cabbage leaves and placed with the underside facing upwards onto water agar in 5 cm Petri dishes. The leaf discs are infested with between 30 and 40 mixed age aphids 24 hours prior to insecticide treatment. The leaf surface is sprayed with the appropriate test solutions in a Burkhard Potter Tower at an approximate water volume of 450 l/ha. Test containers are stored at 21 °C, 60% RH and 16:8 light/dark. Aphids were assessed for mortality 72 hours after treatment.
# [2] = test system: neonicotinoid insecticide susceptible strain 4106A; assay type: in vivo; conditions: mixed age aphids on chinese cabbage leaf discs, Potter Tower spray, mortality 72 hours after treatment; susceptible strain 4106A (Rothamsted Research)
# Experimental: as §1, §2
SMILES,LC50 with 95% confidence limit (ppm) resistant strain [1],LC50 with 95% confidence limit (ppm) susceptible strain [2]
CN1COCN(Cc2cnc(Cl)s2)/C1=N\[N+](=O)[O-] [thiamethoxam],148 (128-172) ppm,0.35 (0.3-0.41) ppm
CN/C(=N/CC1CCOC1)N[N+](=O)[O-] (centres unmarked) [dinotefuran],538 (435-696) ppm,9.95 (8.21-12.5) ppm
C/C(=N\C#N)N(C)Cc1ccc(Cl)nc1 [acetamiprid],49.3 (35.2-72.0) ppm,0.55 (0.51-0.59) ppm
CN/C(=N\[N+](=O)[O-])NCc1cnc(Cl)s1 [clothianidin],904 (478-3616) ppm,0.33 (0.28-0.38) ppm
CCN(Cc1ccc(Cl)nc1)/C(=C/[N+](=O)[O-])NC [nitenpyram],237 (93.7-3566) ppm,1.26 (1.03-1.61) ppm
"CC(=O)N1C(=O)N(NCc2cccnc2)Cc2cc(C(F)(C(F)(F)F)C(F)(F)F)ccc21 [pyrifluquinazon, 1-acetyl-1,2,3,4-tetrahydro-3-[(3-pyridylmethyl)amino]-6-[1,2,2,2-tetrafluoro-1-(trifluoromethyl)ethyl]quinazolin-2-one]",0.09 (0.06-0.13) ppm,0.17 (0.13-0.22) ppm
N#C/N=C1\SCCN1Cc1ccc(Cl)nc1 [thiacloprid],>1000 ppm,0.38 (0.34-0.42) ppm
